In patent publication US10144706B2 (BRISTOL-MYERS SQUIBB COMPANY, priority 2016, dated 2018):
Read-outs that look alike come from different tables or passages of the source.

Biological target: T1, PD-1/PD-L1 interaction (PD-1-Ig / PD-L1-His) (Homo sapiens, UniProt Q9NZQ7)
T1 construct: hPDL1(18-239)-TVMV-His; TVMV protease site linker (C); made in house; host or cells: HEK293T
Test: PD-1/PD-L1 Homogenous Time-Resolved Fluorescence (HTRF) binding assay
Conditions: PD-L1-His 10 nM, PD-1-Ig 20 nM, read-out: Range or IC50
Outline: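 HTRF detection used 1 nM europium-cryptate anti-Ig and 20 nM APC anti-His. Compounds first saw 10 nM PD-L1-His for 15 min, and 20 nM PD-1-Ig was then added for another 15 min. Buffer was dPBS plus 0.1% BSA and 0.05% Tween-20. All concentrations are final.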

T1 sequence (Q9NZQ7 with tags, fused parts or gaps): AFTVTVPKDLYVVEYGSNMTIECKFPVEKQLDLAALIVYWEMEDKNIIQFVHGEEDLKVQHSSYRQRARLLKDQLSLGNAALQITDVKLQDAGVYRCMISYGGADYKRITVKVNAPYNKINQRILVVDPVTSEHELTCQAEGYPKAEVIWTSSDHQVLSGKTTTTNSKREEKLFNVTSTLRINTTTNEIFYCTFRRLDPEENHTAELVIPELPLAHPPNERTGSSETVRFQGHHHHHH

Compound	IC50 (IC50 range class) [nM]	IC50 (numeric IC50) [nM]
Cc1c(OCCCN2CC[C@@H](O)C2)cccc1-c1cccc(OCc2cccc(C#N)c2)c1C [Example 3019, (R)-3-(((3′-(3-(3-hydroxypyrrolidin-1-yl)propoxy)-2,2′-dimethyl-[1,1′-biphenyl]-3-yl)oxy)methyl)benzonitrile]		106
Cc1c(OCCCNCCCO)cccc1-c1cccc(OCCCNC[C@H](O)CO)c1C [Example 2080, (S)-3-((3-((3′-(3-((3-hydroxypropyl)amino)propoxy)-2,2′-dimethyl-[1,1′-biphenyl]-3-yl)oxy)propyl)amino)propane-1,2-diol]	0.04 to 20	
Cc1c(NC(=O)NCCC(=O)O)cccc1-c1cccc(OCCCN2CC[C@@H](O)C2)c1C [Example 3014, (R)-3-(3-(3′-(3-(3-hydroxypyrrolidin-1-yl)propoxy)-2,2′-dimethyl-[1,1′-biphenyl]-3-yl)ureido)propanoic acid]	> 10000	
Cc1c(OCCCN2CC[C@@H](O)C2)cccc1-c1cccc(OCCCN2CCO[C@@H](CO)C2)c1C [Example 2092, (R)-1-(3-((3′-(3-((R)-2-(hydroxymethyl)morpholino)propoxy)-2,2′-dimethyl-[1,1′-biphenyl]-3-yl)oxy)propyl)pyrrolidin-3-ol]	20.1 to 90	
Cc1c(OCCCN(CCc2ccccn2)C[C@H](O)CO)cccc1-c1cccc(OCCCN(CCc2ccccn2)C[C@H](O)CO)c1C [Example 2101, (2S,2′S)-3,3′-((((2,2′-dimethyl-[1,1′-biphenyl]-3,3′-diyl)bis(oxy))bis(propane-3,1-diyl))bis((2-(pyridin-2-yl)ethyl)azanediyl))bis(propane-1,2-diol)]	20.1 to 90	
CC(=O)NC1CCN(CCCOc2cccc(-c3cccc(OCCCN4CC[C@@H](O)C4)c3C)c2C)C1 (stereo partly drawn) [Example 2107, N-(1-(3-((3′-(3-((R)-3-hydroxypyrrolidin-1-yl)propoxy)-2,2′-dimethyl-[1,1′-biphenyl]-3-yl)oxy)propyl)pyrrolidin-3-yl)acetamide]	20.1 to 90	
Cc1c(OCCCN(C)C[C@H](O)CO)cccc1-c1cccc(OCCCN(C)C[C@H](O)CO)c1C [Example 2031, (2S,2′S)-3,3′-((((2,2′-dimethyl-[1,1′-biphenyl]-3,3′-diyl)bis(oxy))bis(propane-3,1-diyl))bis(methylazanediyl))bis(propane-1,2-diol)]	0.04 to 20	
Cc1c(OCCCN2CCCCC2)cccc1-c1cccc(OCCCN2CC[C@@H](O)C2)c1C [Example 2105, (R)-1-(3-((2,2′-dimethyl-3′-(3-(piperidin-1-yl)propoxy)-[1,1′-biphenyl]-3-yl)oxy)propyl)pyrrolidin-3-ol]	20.1 to 90	
Cc1c(OCCCN(C)CCC(N)=O)cccc1-c1cccc(OCCCN(C)CCC(N)=O)c1C [Example 2076]	20.1 to 90	
Cc1c(OCCCNCCc2ccccn2)cccc1-c1cccc(OCCCN2CC[C@@H](O)C2)c1C [Example 2118, (R)-1-(3-((2,2′-dimethyl-3′-(3-((2-(pyridin-2-yl)ethyl)amino)propoxy)-[1,1′-biphenyl]-3-yl)oxy)propyl)pyrrolidin-3-ol]	20.1 to 90	
Cc1c(OCCCN2CCC(O)(CC(=O)O)C2)cccc1-c1cccc(OCCCN2CCC(O)(CC(=O)O)C2)c1Cl (stereo not drawn) [Example 1001, 2,2′-((((2-chloro-2′-methyl-[1,1′-biphenyl]-3,3′-diyl)bis(oxy))bis(propane-3,1-diyl))bis(3-hydroxypyrrolidine-1,3-diyl))diacetic acid]	20.1 to 90	

Now from value to compound:

IC50 (IC50 range class) [nM]	IC50 (numeric IC50) [nM]	Compound
20.1 to 90		Cc1c(COc2cc(OCc3ccc(-n4cccn4)nc3)c(CN(C)C(C)(CO)CO)cc2Cl)cccc1-c1cccc(COc2cc(OCc3ccc(-n4cccn4)nc3)c(CN(C)C(C)(CO)CO)cc2Cl)c1C [Example 5023, 2,2′-((((((2,2′-dimethyl-[1,1′-biphenyl]-3,3′-diyl)bis(methylene))bis(oxy))bis(2-((6-(1H-pyrazol-1-yl)pyridin-3-yl)methoxy)-5-chloro-4,1-phenylene))bis(methylene))bis(methylazanediyl))bis(2-methylpropane-1,3-diol)]
0.04 to 20		Cc1c(COc2cc(OCc3cncc(C#N)c3)c(CO)cc2Cl)cccc1-c1cccc(COc2cc(OCc3cncc(C#N)c3)c(CN[C@@](C)(CO)C(=O)O)cc2Cl)c1C [Example 2124, (S)-2-((5-chloro-4-((3′-((2-chloro-5-((5-cyanopyridin-3-yl)methoxy)-4-(hydroxymethyl)phenoxy)methyl)-2,2′-dimethyl-[1,1′-biphenyl]-3-yl)methoxy)-2-((5-cyanopyridin-3-yl)methoxy)benzyl)amino)-3-hydroxy-2-methylpropanoic acid]
0.04 to 20		CC(=O)c1cc(Cl)c(OCc2cccc(-c3cccc(COc4cc(OCc5cncc(C#N)c5)c(CN[C@@](C)(CO)C(=O)O)cc4Cl)c3Cl)c2Cl)cc1OCc1cncc(C#N)c1 [Example 60080]
20.1 to 90		Cc1c(COc2cc(OCc3cncc(C#N)c3)c(CNC(CC(=O)O)c3ccc(F)cc3)cc2Cl)cccc1-c1cccc(COc2cc(OCc3cncc(C#N)c3)c(CNC(CC(=O)O)c3ccc(F)cc3)cc2Cl)c1C (stereo not drawn) [Example 40390]
0.04 to 20		COc1cc(OCc2cccc(-c3cccc(COc4cc(OCc5cncc(C#N)c5)c(CN(C)[C@@H](CCO)C(=O)O)cc4Cl)c3C)c2C)c(Cl)cc1CN(C)[C@@H](CCO)C(=O)O [Example 5030, N-(4-((3′-((4-((((S)-1-carboxy-3-hydroxypropyl)(methyl)amino)methyl)-2-chloro-5-((5-cyanopyridin-3-yl)methoxy)phenoxy)methyl)-2,2′-dimethyl-[1,1′-biphenyl]-3-yl)methoxy)-5-chloro-2-methoxybenzyl)-N-methyl-L-homoserine]
0.04 to 20		Cc1c(COc2cc(OCc3cncc(C#N)c3)c(CN[C@](C)(CO)C(=O)O)cc2Cl)cccc1-c1cccc(COc2cc(OCc3cncc(C#N)c3)c(CN[C@](C)(CO)C(=O)O)cc2Cl)c1C [Example 2121, (2R,2′R)-2,2′-((((((2,2′-dimethyl-[1,1′-biphenyl]-3,3′-diyl)bis(methylene))bis(oxy))bis(5-chloro-2-((5-cyanopyridin-3-yl)methoxy)-4,1-phenylene))bis(methylene))bis(azanediyl))bis(3-hydroxy-2-methylpropanoic acid)]
0.04 to 20		Cc1cc(OCc2cccc(-c3cccc(COc4cc(OCc5cncc(C#N)c5)c(CN5CCCC[C@H]5C(=O)O)cc4Cl)c3C)c2C)c(Cl)cc1CN1CCCC[C@H]1C(=O)O [Example 5503, (S)-1-(4-((3′-((4-(((S)-2-carboxypiperidin-1-yl)methyl)-2-chloro-5-((5-cyanopyridin-3-yl)methoxy)phenoxy)methyl)-2,2′-dimethyl-[1,1′-biphenyl]-3-yl)methoxy)-5-chloro-2-methylbenzyl)piperidine-2-carboxylic acid]
0.04 to 20		COC(=O)CC(O)CNCc1cc(Cl)c(OCc2cccc(-c3cccc(COc4cc(OCc5cncc(C#N)c5)c(CNCC(O)CC(=O)OC)cc4Cl)c3C)c2C)cc1OCc1cncc(C#N)c1 (stereo not drawn) [Example 40710]
20.1 to 90		Cc1c(COc2cc(OCc3cncc(C#N)c3)c(CN[C@@H](Cc3cnc[nH]3)C(N)=O)cc2Cl)cccc1-c1cccc(COc2cc(OCc3cncc(C#N)c3)c(CN[C@@H](Cc3cnc[nH]3)C(N)=O)cc2Cl)c1C [Example 40620]
20.1 to 90		N#Cc1cncc(COc2cc(OCc3cccc(-c4cccc(COc5cc(OCc6cncc(C#N)c6)c(C(=O)N6CCCC(O)C6)cc5Cl)c4Cl)c3Cl)c(Cl)cc2C(=O)N2CCCC(O)C2)c1 (stereo not drawn) [Example 80040]
